Test results: US20050238675A1, “Water-soluble formulations of fat soluble vitamins and pharmaceutical agents and their applications” (priority 2004, published 2005)

Assays:
[1] = Solubility measurement of Co-Q10 in aqueous solution (HPLC assay); format: physicochemical
[2] = Solubility measurement of beta-carotene in water (0.45 micron filtration, UV-Vis spectrometry); format: physicochemical; conditions: beta-carotene admixed in edible oil, mixed with 10 ml DI water, 0.45 micron syringe filter
Method: Solubility Measurement: For comparison purpose, the solubility of beta-carotene was measured both in edible oil and in the micellized product of Example 1 described above. In these measurements a suitable amount of sample is mixed with 10 ml of DI water for at least 10 minutes. The solutions are filtered through 0.45 microns syringe filter. The beta-carotene contained in the sample after this filtration is measured by UV-Vis spectrometry. […] 100% of the originally admixed beta-carotene is measured to be present in the micellized filtered sample of Example 1.

| Co-Q10 detected in aqueous solution [1] | beta-carotene found in the aqueous sample [2] | Compound |
| --- | --- | --- |
| no Co-Q10 detected | – | COC1=C(OC)C(=O)C(C/C=C(\C)CC/C=C(\C)CC/C=C(\C)CC/C=C(\C)CC/C=C(\C)CC/C=C(\C)CC/C=C(\C)CC/C=C(\C)CC/C=C(\C)CCC=C(C)C)=C(C)C1=O [Co-Q10 powder, ubidecarenone] |
| – | No detectable amount | CC1=C(/C=C/C(C)=C/C=C/C(C)=C/C=C/C=C(C)/C=C/C=C(C)/C=C/C2=C(C)CCCC2(C)C)C(C)(C)CCC1 [beta-carotene] |
